From patent US20030114357A1, “Methods related to the A-C repeat Z-sequence upstream from the aldose reductase gene” (priority 2001, published 2003)

What was measured:
[1] = tested on: subjects with painful, symmetrical polyneuropathy; assay: Peroneal motor nerve conduction velocity (NCV), double-blind study placebo vs zopolrestat, 12 week change; type: in vivo, human; details: placebo vs combined treatment groups (250 and 500 mg zopolrestat dose)
Description: (§1) Diabetic neuropathy, a complication arising from diabetes mellitus, is an example of conditions that are mediated by having at least one allele of the (A-C)n repeat Z sequence associated with the aldose reductase gene wherein the value of n is less than 24. […] Such evaluation may be performed by measuring changes in nerve conduction velocity (NCV) in the following nerves: median motor, ulnar sensory, median sensory (both distal and proximal segments), peroneal motor and sural sensory. Testing is performed prior to the initiation of administration of the Agent and one or more times thereafter. An exemplary schedule for neuroelectrophysiology evaluation is prior to initiation of administration of the Agent and at weeks 12, 24 and 52 following initiation of administration.
(§2) Tables 1 and 2 illustrate the effect of administration of the aldose reductase inhibitor, zopolrestat, on NCV of subjects having one and two alleles of the Z sequence having less than 24 A-C repeats. […] The NCV results from Tables 1 and 2 where obtained according to the protocol described in Example 2 of the General Experimental Procedures.
(§3) The terms “1 short” and “2 short” as used in Tables 1 and 2 refers to the number of alleles found in each subject where n has a value of less than 24 for the (A-C)n repeat Z sequence. “1 short” refers to subjects having only one allele wherein n is less than 24. “2 short” refers to subjects having two alleles wherein n is less than 24. […]
Nerve Conduction Velocity (“NCV”) is defined as the maximal speed in which Compound Action Potentials are propagated within a nerve, generally reflecting the activity in the fastest and largest neurons and calculated in meters per second by dividing distance in mm by Latency. […]
3. […] Skin temperature is measured prior to and at the conclusion of testing at sites midway between the stimulating and recording electrodes for each limb. Temperature is monitored and adjusted during testing using either a feedback controlled infrared radiant heater, a water bath or a temperature controlled blanket wrap. […]

[2] = tested on: subjects with painful, symmetrical polyneuropathy; assay: Composite neuroelectrophysiology (NE) parameter (modified O'Brien score), double-blind study placebo vs zopolrestat, 12 week change; type: in vivo, human; details: placebo vs combined treatment groups (250 and 500 mg zopolrestat dose)
Description: as §1, §2
Composite NE parameter is calculated according to the technique described in O'Brien, P. C., Biometrics, 40, 1079-1087 (1984). For ease of interpretation, the standard composite NE parameter of O'Brien is slightly modified for Tables 1 and 2. The standard O'Brien method would give values of 0 to 1. For the modified O'Brien score, the standard O'Brien value is reduced by 0.5 to give a value in the range of −0.5 to 0.5 with an expected value of 0. Values lower than 0 correspond to an overall composite NE decrease relative to the entire patient population, while values greater than 0 correspond to a relative increase.
as §3

O=C(O)Cc1nn(Cc2nc3cc(C(F)(F)F)ccc3s2)c(=O)c2ccccc12 [zopolrestat]
Peroneal Motor 12 Week Change Mean Treatment Effect ([1]; Group 1 Short (subjects with only one Z-sequence allele n<24)): 0.22 | Peroneal Motor 12 Week Change Mean Treatment Effect ([1]; Group 2 Short (subjects with two Z-sequence alleles n<24)): 2.35 | Peroneal Motor 12 Week Change Mean Treatment Effect ([1]; Group Combined (1 short + 2 short Z-sequence alleles, n<24), NCV, calculated in meters per second): 1.63 | Composite NE Parameter (modified) 12 Week Change Mean Treatment Effect ([2]; Group 1 Short (only one Z-sequence allele n<24)): 0.04 | Composite NE Parameter (modified) 12 Week Change Mean Treatment Effect ([2]; Group 2 Short (two Z-sequence alleles n<24)): 0.09 | Composite NE Parameter (modified) 12 Week Change Mean Treatment Effect ([2]; Group Combined, range -0.5 to 0.5): 0.07
